Key:
[1] = 18 breast cancer patients (T. Kitai, et al., Breast Cancer, 12:211-215, 2005); cited from earlier work
[2] = Signal intensity of near-infrared fluorescence of ICG-MAA complexes at various ICG and MAA mixing ratios; type: physicochemical; conditions: for Signal intensity of near-infrared fluorescence: MAA 0 mg/ml

## CC1(C)C(/C=C/C=C/C=C/C=C2\N(CCCCS(=O)(=O)O)c3ccc4ccccc4c3C2(C)C)=[N+](CCCCS(=O)(=O)[O-])c2ccc3ccccc3c21 [ICG, indocyanine green]
[1]
  Clinical safety: safely used
[2]; ICG 9.0 μM
  Signal intensity of near-infrared fluorescence: 289
[2]; ICG 12.9 μM
  Signal intensity of near-infrared fluorescence: 363
[2]; ICG 25.8 μM
  Signal intensity of near-infrared fluorescence: 466
[2]; ICG 38.7 μM
  Signal intensity of near-infrared fluorescence: 425
[2]; ICG 51.6 μM
  Signal intensity of near-infrared fluorescence: 399
[2]; ICG 64.5 μM
  Signal intensity of near-infrared fluorescence: 374
[2]; ICG 77.4 μM
  Signal intensity of near-infrared fluorescence: 332
[2]; ICG 103 μM
  Signal intensity of near-infrared fluorescence: 289
[2]; ICG 258 μM
  Signal intensity of near-infrared fluorescence: 139
[2]; ICG 516 μM
  Signal intensity of near-infrared fluorescence: 71
[2]; ICG 774 μM
  Signal intensity of near-infrared fluorescence: 39
[2]; ICG 1032 μM
  Signal intensity of near-infrared fluorescence: 30
[2]; MAA was not treated
  ICG concentration showing the highest value of signal intensity of near-infrared fluorescence: 25.8 µM

— patent publication US10166302B2, “Labeling composition for cancer lesion” (NATIONAL CANCER CENTER, priority 2012, dated 2019)
